Entries after “also recorded” stand apart in the source; their conditions may differ. Like-named read-outs stand apart in the source and are kept apart here.
Legend:
[1] = system: fVIIa-sTF; details: P1 moiety; cited from earlier work
Text: We have detected aeruginosins 98A (36) and B (37) from M. aeruginosa NIES-98. The MeOH fractions from the aforementioned cyanobacteria are not active in the fVIIa-sTF assay. Thus, from our readings, we compare the fVIIa-sTF inhibitory activity of aeruginosins to phenylamidine. […] The presence of the cyclic amino alcohol moiety in aeruginosins may contribute to efficient binding against fVIIa. However, this hypothesis needs to be established by a structure–ac ...

[2] = molecular target: T1, fVIIa (Homo sapiens, UniProt P08709); experiment: fVIIa inhibitory assay (cephalin buffer, without sTF); assay type: biochemical; details: for fVIIa inhibition, slow binding, in words: 10 and 1 µg/mL, L-α-cephalin buffer, without sTF, three to six hours; for fVIIa inhibitory activity, in words: concentration not given
T1 construct: purchased Enzyme Research Laboratories, South Bend, IN, USA HFVIIa
Method: (§1) All assay experiments were done in a cold condition at 4 °C using an ice bucket until pre-incubation and reaction at 37 °C.
(§2) The fVIIa and fVIIa-sTF assays used L-α-cephalin buffer solution. The fVIIa-sTF assay was performed following the procedure by Nakagura et al. with modification. The L-α-cephalin as buffer solution was prepared as follows: Buffer (A): Five hundred milliliters (500 mL) of water was added to 6.057 g of Tris (hydroxymethyl)aminomethane (Nacalai Tesque, Kyoto, Japan) to make 100 mM Tris-HCl solution; 4.383 g NaCl (Nacalai Tesque) was added to the resulting solution to make […], and 500 mg bovine serum albumin (BSA) (Sigma, A7284, St. Louis, MO, USA) was added. The pH was adjusted to 7.40; Buffer (B): A 200 mL of Buffer A was added to 0.3329 g of CaCl2 (Nacalai Tesque). The resulting solution (Buffer B) was adjusted to pH 7.48 before it was stored at 4 °C in preparation for the next day experiment. A 30 µg/mL 3-sn-phosphatidylethanolamine from the bovine brain (Sigma, USA) or L-α-cephalin was added to Buffer B on the day of the experiment.
The 80 µL 3-sn-phosphatidylethanolamine buffer, 50 µL of […] fVIIa enzyme in a buffer, and 20 µL of sample solution were dispensed in each well of a 96-well plate (Iwaki: 3881-096, Tokyo, Japan). The 96-well plate with the solution was pre-incubated at 37 °C for 5 min separately together with 1 mM of Chromozyme t-PA (N-Methylsulfonyl-D-Phe-Gly-Arg-4-nitranilide acetate), from Roche Diagnostics (Mannheim, Germany), dissolved in water as a substrate. The 50 µL of the substrate was added, and the mixture was agitated to start the reaction.
(§3) The human factor VIIa (HFVIIa) enzyme, purchased from Enzyme Research Laboratories, South Bend, IN, USA, was added and adjusted with 20 mM Tris-HCl/0.1 M NaCl/pH 7.4. The final enzyme concentration should be 95.06 µg/mL. The 100 µL enzyme solutions were stored in plastic cryogenic vials (Iwaki: 2712-002, Tokyo, Japan) at −80 °C until use. The fVIIa enzyme, 95.06 µg/mL, and 100 µL volume solution was added to 7.822 mL of 3-sn-phosphatidylethanolamine buffer on the assay preparation.

[3] = molecular target: thrombin (Homo sapiens, UniProt P00734); experiment: Thrombin inhibitory assay; assay type: biochemical
[4] = system: fVIIa-sTF; experiment: fVIIa-sTF inhibitory assay; assay type: biochemical, human
Method: as §1, §2
The same buffer preparation for fVIIa assay was used for the fVIIa-sTF inhibitory assay. The fVIIa: sTF ratio was 0.30 µg/mL: 0.39 µg/mL, and was prepared in Section 3.3.2.
as §3
The sTF or Recombinant Human Soluble Tissue Factor (F3-28H) or Human F3 was purchased from Creative Biomart, Shirley, NY, USA. The sTF was added with 10 mM PBS, pH 7.4, to make […] (25.624 µg/mL), and transferred in 300 µL volumes in plastic cryogenic vials (Iwaki: 2712-002, Tokyo, Japan), stored at −80 °C until use. The sTF solution (25.624 µg/mL, 300 µL) was added to 4.7 mL of the 3-sn-phosphatidylethanolamine buffer in an amber bottle before use.
The 30 µL buffer, 100 µL fVIIa-sTF, and 20 µL sample solutions were added to a well in a 96-well plate. The solution was pre-incubated at 37 °C for 5 min, together with 1 mM Chromozym t-PA in water as a substrate. A 50-µL substrate was added to start the reaction, agitated, and the absorbance was monitored at 405 nm using Thermo Scientific Multiskan FC microplate photometer.

[5] = system: fVIIa; details: cited from earlier work

T1 sequence (P08709 213-466): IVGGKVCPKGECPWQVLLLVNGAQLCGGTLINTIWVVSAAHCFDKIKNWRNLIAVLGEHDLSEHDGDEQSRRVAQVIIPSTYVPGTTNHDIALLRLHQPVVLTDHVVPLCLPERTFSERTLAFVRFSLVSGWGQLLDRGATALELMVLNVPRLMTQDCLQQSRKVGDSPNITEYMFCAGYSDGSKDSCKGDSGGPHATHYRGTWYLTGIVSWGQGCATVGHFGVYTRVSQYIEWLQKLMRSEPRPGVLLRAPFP
T1 sequence (P08709 61-212): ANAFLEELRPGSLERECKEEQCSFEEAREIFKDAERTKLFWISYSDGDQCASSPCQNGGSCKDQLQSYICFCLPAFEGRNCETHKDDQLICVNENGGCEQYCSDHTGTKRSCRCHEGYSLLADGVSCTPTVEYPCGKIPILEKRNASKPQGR

In the case of `N=C(N)c1ccccc1` [phenylamidine], the “fVIIa-sTF inhibitory activity, in words” value [1] is given as “inhibitory activity against fVIIa-sTF”.

With aeruginopeptin 228-B [Compound 3] the “fVIIa inhibition, slow binding, in words” value [2] was “active against fVIIa with slow binding and inhibition from three to six hours”.

In the case of aeruginosin K139 [Compound 30], the “thrombin inhibitory activity, in words” value ([3]; aeruginosins or MeOH fractions, concentration not given) is reported as “dual inhibitory activity”, the “fVIIa inhibitory activity, in words” value [2] is reported as “dual inhibitory activity” and the “active compound attributed by LC-MS in fVIIa-sTF active fraction” value ([4]; dereplication by LC-MS of active fraction, not tested as pure compound) is reported as “active component; also recorded: active compound”.

In the case of “microcystin-LR [Compound 18, reference compound]”, the “fVIIa-sTF inhibition, in words” value [4] is reported as “not active”.

In the case of “microcystin-RR [Compound 19, reference compound]”, the “fVIIa-sTF inhibition, in words” value [4] is reported as “not active”.

In the case of “microcystin-YR [Compound 20, reference compound]”, the “fVIIa-sTF inhibition, in words” value [4] is reported as “not active”.

For oscillapeptilide 97A [Compound 11], the “fVIIa inhibition, slow binding, in words” value [2] was “active against fVIIa with slow binding and inhibition from three to six hours”.

In the case of oscillapeptin G [Compound 10], the “fVIIa inhibition, slow binding, in words” value [2] is reported as “active against fVIIa with slow binding and inhibition from three to six hours”.

For oscillarin, the “fVIIa inhibition, in words” value [5] is listed as “fVIIa and thrombin inhibitors”.

For spumigins A [Compound 21], the “thrombin inhibition, in words” value ([3]; 100 µg/mL, after a long-term storage) was “active”, the “fVIIa inhibitory activity, in words” value [2] was “do not inhibit” and the “fVIIa-sTF inhibition, in words” value ([4]; pure compounds or compound class) was “do not inhibit”.
